Data as given in ChEMBL document CHEMBL4007392, “Modulating Mineralocorticoid Receptor with Non-steroidal Antagonists. New Opportunities for the Development of Potent and Selective Ligands without Off-Target Side Effects” (J Med Chem, 2017).

What was measured:
[1] = target: T1, Androgen receptor (Homo sapiens, UniProt P10275); test: Antagonist activity at GAL4-fused human AR LBD (667 to 919 residues) expressed in CHO-K1 cells assessed as inhibition of dihydrotestosterone-induced transactivation activity after 5 to 6 hrs by luciferase reporter gene assay; assay type: cell-based
T1 sequence (P10275 whole entry): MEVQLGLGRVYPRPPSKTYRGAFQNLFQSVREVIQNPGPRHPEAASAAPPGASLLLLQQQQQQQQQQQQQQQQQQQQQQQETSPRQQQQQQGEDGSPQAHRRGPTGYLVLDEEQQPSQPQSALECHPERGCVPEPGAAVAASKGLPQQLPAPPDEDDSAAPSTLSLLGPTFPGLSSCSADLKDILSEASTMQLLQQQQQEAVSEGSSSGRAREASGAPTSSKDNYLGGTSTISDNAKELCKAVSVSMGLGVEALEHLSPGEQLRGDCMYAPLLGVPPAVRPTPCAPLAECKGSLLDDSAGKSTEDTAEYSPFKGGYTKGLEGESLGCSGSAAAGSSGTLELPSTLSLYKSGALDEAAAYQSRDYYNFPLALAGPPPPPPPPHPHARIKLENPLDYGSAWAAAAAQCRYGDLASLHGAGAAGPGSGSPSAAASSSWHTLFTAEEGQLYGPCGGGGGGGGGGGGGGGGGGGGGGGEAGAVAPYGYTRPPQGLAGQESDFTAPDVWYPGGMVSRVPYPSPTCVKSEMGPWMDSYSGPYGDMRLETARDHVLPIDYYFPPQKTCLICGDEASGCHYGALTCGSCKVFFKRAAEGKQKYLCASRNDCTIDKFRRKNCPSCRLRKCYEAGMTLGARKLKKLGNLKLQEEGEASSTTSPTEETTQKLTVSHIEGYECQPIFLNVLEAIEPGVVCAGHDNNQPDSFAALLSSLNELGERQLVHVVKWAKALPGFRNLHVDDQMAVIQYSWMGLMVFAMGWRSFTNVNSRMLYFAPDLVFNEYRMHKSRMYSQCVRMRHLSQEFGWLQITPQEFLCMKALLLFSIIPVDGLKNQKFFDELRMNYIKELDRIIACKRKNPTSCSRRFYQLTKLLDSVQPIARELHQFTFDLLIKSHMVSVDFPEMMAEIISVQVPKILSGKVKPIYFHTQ

[2] = target: T2, Progesterone receptor (Homo sapiens, UniProt P06401); test: Antagonist activity at GAL4-fused human PR LBD (680 to 933 residues) expressed in CHO-K1 cells assessed as inhibition of progesterone-induced transactivation activity after 5 to 6 hrs by luciferase reporter gene assay; assay type: cell-based
T2 sequence (P06401 whole entry): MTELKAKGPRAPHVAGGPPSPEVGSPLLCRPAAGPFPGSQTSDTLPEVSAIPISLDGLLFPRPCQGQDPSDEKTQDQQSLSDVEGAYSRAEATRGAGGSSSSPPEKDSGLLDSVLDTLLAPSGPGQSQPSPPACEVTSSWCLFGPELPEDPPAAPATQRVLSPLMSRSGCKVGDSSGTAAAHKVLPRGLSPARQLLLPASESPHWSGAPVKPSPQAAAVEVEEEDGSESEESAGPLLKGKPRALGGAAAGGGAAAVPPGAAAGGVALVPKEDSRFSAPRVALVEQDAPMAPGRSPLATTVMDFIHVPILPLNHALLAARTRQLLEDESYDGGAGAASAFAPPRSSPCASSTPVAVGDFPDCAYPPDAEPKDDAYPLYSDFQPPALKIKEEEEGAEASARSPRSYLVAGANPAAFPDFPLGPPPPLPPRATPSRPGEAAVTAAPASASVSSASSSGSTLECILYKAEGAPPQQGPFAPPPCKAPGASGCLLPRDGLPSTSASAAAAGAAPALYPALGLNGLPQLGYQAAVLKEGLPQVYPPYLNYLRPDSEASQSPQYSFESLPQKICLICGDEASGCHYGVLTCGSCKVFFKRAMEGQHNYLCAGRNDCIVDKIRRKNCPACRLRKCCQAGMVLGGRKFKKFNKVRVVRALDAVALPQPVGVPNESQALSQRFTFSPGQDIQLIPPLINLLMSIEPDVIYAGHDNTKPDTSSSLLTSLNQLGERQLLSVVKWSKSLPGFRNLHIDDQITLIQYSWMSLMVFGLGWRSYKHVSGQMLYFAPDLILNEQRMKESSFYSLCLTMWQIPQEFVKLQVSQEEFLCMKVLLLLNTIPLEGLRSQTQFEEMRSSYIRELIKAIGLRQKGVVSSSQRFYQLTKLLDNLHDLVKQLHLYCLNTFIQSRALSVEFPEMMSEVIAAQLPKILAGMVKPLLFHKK

[3] = target: T3, Glucocorticoid receptor (Homo sapiens, UniProt P04150); test: Antagonist activity at GAL4-fused human GR LBD (443 to 777 residues) expressed in CHO-K1 cells assessed as inhibition of dexamethasone-induced transactivation activity after 5 to 6 hrs by luciferase reporter gene assay; assay type: cell-based
T3 sequence (P04150 whole entry): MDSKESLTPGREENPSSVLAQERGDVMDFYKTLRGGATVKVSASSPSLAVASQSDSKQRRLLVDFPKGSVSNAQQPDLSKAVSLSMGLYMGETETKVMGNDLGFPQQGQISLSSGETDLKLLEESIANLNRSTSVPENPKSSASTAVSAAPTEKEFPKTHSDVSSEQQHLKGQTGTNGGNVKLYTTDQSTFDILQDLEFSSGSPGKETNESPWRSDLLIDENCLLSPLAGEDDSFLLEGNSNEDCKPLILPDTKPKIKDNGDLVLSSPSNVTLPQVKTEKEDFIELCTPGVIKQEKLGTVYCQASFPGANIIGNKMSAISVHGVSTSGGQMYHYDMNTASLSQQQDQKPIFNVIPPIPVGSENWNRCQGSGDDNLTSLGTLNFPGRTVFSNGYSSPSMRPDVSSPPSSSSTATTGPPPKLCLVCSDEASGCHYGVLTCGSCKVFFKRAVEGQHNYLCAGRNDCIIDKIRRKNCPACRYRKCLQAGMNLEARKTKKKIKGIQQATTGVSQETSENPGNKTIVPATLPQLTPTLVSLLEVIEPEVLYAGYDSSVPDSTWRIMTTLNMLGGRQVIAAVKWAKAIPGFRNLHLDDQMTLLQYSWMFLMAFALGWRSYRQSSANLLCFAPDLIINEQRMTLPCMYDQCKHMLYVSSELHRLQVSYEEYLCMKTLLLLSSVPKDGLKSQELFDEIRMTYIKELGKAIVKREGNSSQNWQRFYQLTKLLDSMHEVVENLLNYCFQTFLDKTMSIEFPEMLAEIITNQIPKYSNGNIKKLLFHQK

[4] = species: Homo sapiens; test: Induction of improvement in urinary albumin-creatinine ratio in patient with diabetic nephropathy receiving ACE inhibitor or angiotensin receptor blocker at 7.5 to 20 mg/day during latter phase II trial; assay type: functional; set-up: scale not given: the % may be the effect or the level left

For `CCOc1ncc(C)c2c1[C@H](c1ccc(C#N)cc1OC)C(C(N)=O)=C(C)N2` [FINERENONE], the IC50 [1] was ≥ 10 µM, the IC50 [2] was ≥ 10 µM and the IC50 [3] was ≥ 10 µM. The Activity [4] was 21 - 38%.
